In assay [1] the target is T1, Prolyl endopeptidase (PREP) (Homo sapiens, UniProt P48147).
T1 sequence (P48147 1-710): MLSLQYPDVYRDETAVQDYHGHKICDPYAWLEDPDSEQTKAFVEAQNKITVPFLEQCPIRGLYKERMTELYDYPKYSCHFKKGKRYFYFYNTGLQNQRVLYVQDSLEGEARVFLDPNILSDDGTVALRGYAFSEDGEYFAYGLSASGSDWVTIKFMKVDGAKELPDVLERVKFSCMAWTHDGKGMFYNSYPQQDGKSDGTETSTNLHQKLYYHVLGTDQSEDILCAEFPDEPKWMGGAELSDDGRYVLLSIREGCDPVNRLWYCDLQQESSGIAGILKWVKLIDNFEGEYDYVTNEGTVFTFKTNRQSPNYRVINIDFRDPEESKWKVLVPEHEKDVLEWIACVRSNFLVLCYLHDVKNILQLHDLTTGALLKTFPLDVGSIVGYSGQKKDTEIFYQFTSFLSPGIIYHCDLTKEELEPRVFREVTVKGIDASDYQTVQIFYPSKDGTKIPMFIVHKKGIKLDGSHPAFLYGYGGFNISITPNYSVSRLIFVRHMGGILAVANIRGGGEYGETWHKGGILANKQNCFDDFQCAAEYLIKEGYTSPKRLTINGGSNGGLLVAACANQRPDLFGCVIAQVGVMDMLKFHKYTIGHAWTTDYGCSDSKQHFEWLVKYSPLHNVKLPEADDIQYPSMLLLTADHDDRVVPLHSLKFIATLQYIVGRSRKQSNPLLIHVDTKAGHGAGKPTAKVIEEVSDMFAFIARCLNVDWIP
Nature of the assay: Chromogenic enzyme assay (Z-Gly-Pro-pNA, […] nm) with recombinant human PREP; Lineweaver-Burk kinetics. The class given is biochemical.

For assay [2], the target named is T1, Prolyl endopeptidase (PREP). The assay can be described thus: Chromogenic enzyme assay (Z-Gly-Pro-pNA, […] nm) with recombinant human PREP. The class given is biochemical.

Usually IC50 stands for the concentration at which inhibition is half-maximal.

As to `CCCCCCCCCCCCCCCCCCCCCCCCCC1CCCCC1O` (racemic) [PREPi, (±)-2-pentacosylcyclohexanol], in assay [1], the IC50 came out at 20 ± 1.6 µM. With `COc1cc(C(=O)O)cc(OC)c1O` [Fr-2, syringic acid], the IC50 in assay [2] turned out to be 155 ± 1.8 µM.

These data come from paper PMC12501607, “Novel prolyl endopeptidase inhibitor from Myricaria germanica alleviates steatohepatitis” (RSC Advances, 2025).
